Counter-ions that a name gives are not always drawn. Like-named read-outs stand apart in the source and are kept apart here.

This is an account of results in patent US20230172894A1, “COMBINATION TREATMENT FOR FUMARATE-RELATED DISEASES” (IMCYSE SA, priority 2020, published 2023).

The subject of data set [1] is experimental auto-immune encephalomyelitis (EAE) development in mice. The following applies: Example 2; for mice died in group: 16 mice per group; for disease onset: peptide 30 μg/Alum s.c. days 4, 9, 14, 19, BG-12 100 mg/kg p.o. BID days 0 to 27; for disease onset / AUC (area under the curve) of EAE scores / MMS (mean maximal score) / end score (clinical EAE score 0-5): single agents vs negative control, combinations vs peptides only or BG-12 only. From the text: Example 2: Effect of the therapeutic administration of an immunogenic peptide comprising a MOG35-55 MHCII T cell epitope linked or not to an HCPYC oxidoreductase motif in combination with dimethyl fumarate (BG-12, […]™) on experimental auto-immune encephalomyelitis (EAE) development in mice.
The study used a total of 96 female C57BL/6 mice (Taconic Biosciences, 10 weeks old on Day 0). Mice were acclimated for 14 days prior to the first injection. Mice were assigned to groups in a balanced manner to achieve similar average weight across the groups at the start of the study.
Treatment 1 was administered once on each of the days indicated in Table 3, s.c., at a volume of 0.05 mL/site, each mouse receiving injection at two sites, for a total of 0.1 mL/mouse/dosing day. IMCY-0189 or MOG35-55 peptide total dose was 30 μg per administration.
(§1) BG-12 was dosed at 100 mg/kg.
(§2) All dosing were done at the same time (+/−1 hour) each dosing day. For the BID groups there were no less than 10 and no more than 14 hours between doses.
Lyophilized mouse MOG35-55 peptide with the sequence […] (SEQ ID NO:205), comprising the mouse Myelin Oligodendrocyte Glycoprotein (MOG35-55) MHCII T cell epitope […] (SEQ ID NO:169), was solubilized immediately before use. Lyophilized MOG35-55 peptide was thawed at room temperature for 10 minutes, resuspended in Na Acetate buffer 50 mM NaCl 0.9% pH 5.4 and incubated at room temperature for 10 minutes. Reconstituted MOG35-55 peptide was then mixed with Imject™ Alum Adjuvant before injection. Note that the positions 35 to 55 refer to the mature protein, i.e. after cleavage of the signal peptide (AA 1-29), defined by SEQ ID NO: 208. In the full-length amino acid sequence of MOG (SEQ ID NO: 184), said peptide would be at positions 64-84.
Lyophilized IMCY-0189 was thawed at room temperature for 10 minutes, resuspended in Na Acetate buffer 50 mM NaCl 0.9% pH 5.4 and incubated at room temperature for 10 minutes. Reconstituted peptide was then mixed with Imject™ Alum Adjuvant before injection.
For Treatment 2, vehicle was 0.5% HPMC, 0.2% Tween 20, and 50 mM citrate buffer at pH 4. BG-12 (Santa Cruz Biotechnology, sc-239774) and was prepared at least every 2 weeks. At each preparation the required amount of BG-12 was weighed out into a mortar and triturated with a pestle. Vehicle was then added in small increments and mixed until the final volume was reached. The material was then vortexed and sonicated in a water bath until a homogeneous suspension was obtained. Formulated BG-12 was stored at 4° C., stirring continuously.
EAE induction, scoring and statistical analysis were performed as described in example 1.
(§3) EAE development was evaluated by comparing clinical EAE readouts for all groups to the negative control (Saline/Vehicle) group.

For data set [2] the test system is unchanged. The data set can be described thus: Example 3: serum neurofilament light (NF-L) levels in EAE mice. It counts as in vivo, female C57BL/6 mice. The following applies: Day 28 serum, vs negative control. Here is the method: On Day 28, blood was collected from all mice into gel clot activator tubes and allowed to clot at room temperature for ˜30 minutes. Blood is then centrifuged at ˜10000 g for 5 minutes. Serum was transferred into Eppendorf tubes and stored at −80° C. until shipment to Quanterix™. Serum Neurofilament light (NF-L) protein levels were quantified using Simoa® NF-light Advantage kit as described in example 1.

Data set [3] shares this test system. Conditions: Example 4; for mice died in group: 16 mice per group; for disease onset: peptide 30 μg/Alum s.c. days 4, 9, 14, 19, BG-12 100 mg/kg p.o. BID days 0 to 27; for disease onset / AUC (area under the curve) of EAE scores / MMS (mean maximal score) / end score (clinical EAE score 0-5): vs negative control, combinations also vs peptides only or BG-12 only.
From the text: Example 4: Effect of the therapeutic administration of an immunogenic peptide comprising a human MOG201-212 MHCII T cell epitope linked to a KHCPYC oxidoreductase motif in combination with dimethyl fumarate (BG-12, […]™) on experimental auto-immune encephalomyelitis (EAE) development in mice.
The study used a total of 96 female C57BL/6 mice (Taconic Biosciences, 9 weeks old on Day 0). Mice were acclimated for 7 days prior to the first injection. Mice were assigned to groups in a balanced manner to achieve similar average weight across the groups at the start of the study.
Treatment 1 was administered once on each of the days indicated in Table 5, s.c., at a volume of 0.05 mL/site, each mouse receiving injection at two sites, for a total of 0.1 mL/mouse/dosing day. IMCY-0189 or P4 peptide total dose was 30 μg per administration.
as §1, §2
Lyophilized immunogenic peptide P4 with the sequence […] (SEQ ID NO: 176), comprising an oxidoreductase motif KHCPYC (SEQ ID NO: 77), a linker VRY, a human Myelin Oligodendrocyte Glycoprotein (MOG201-212) MHCII T cell epitope […] (SEQ ID NO: 165) and a flanking sequence TLFKK (SEQ ID NO: 267) (Smart Bioscience) was solubilized immediately before use. Lyophilized P4 was thawed at room temperature for 10 minutes, resuspended in Na Acetate buffer 50 mM NaCl 0.9% pH 5.4 and incubated at room temperature for 10 minutes. Reconstituted peptide was then mixed with Imject™ Alum Adjuvant before injection.
Treatment 2 was prepared as described in example 2.
EAE induction, scoring and statistical analysis were performed as described in example 2.
as §3

On to `COC(=O)/C=C/C(=O)OC` [BG-12, dimethyl fumarate, reference compound], for which, in data set [1], the “mice died in group” value is listed as “No mice died”, the disease onset entry is on record as “postponed disease onset”, the “AUC (area under the curve) of EAE scores” value is reported as “statistically significant reduced” and the “MMS (mean maximal score)” value was “statistically significant reduced”. Besides, the “end score (clinical EAE score 0-5)” value in data set [1] is recorded as “reduced end score”. For the same compound, the “serum NF-L levels” value in data set [2] is “statistically significant reduced NF-L levels”. Also, in data set [3], the “mice died in group” value was “No mice died”, the disease onset result is listed as “postponed disease onset”, the “AUC (area under the curve) of EAE scores” value is reported as “statistically significant reduced” and the “MMS (mean maximal score)” value was “statistically significant reduced”. Further, in data set [3], the “end score (clinical EAE score 0-5)” value is on record as “reduced end score”.

Take HCPYCGWYRSPFSRVVHLYR [IMCY-0189]: in data set [1], the “mice died in group” value was found to be 1 mice, the disease onset entry is listed as “postponed disease onset”, the “AUC (area under the curve) of EAE scores” value is given as “statistically significant reduced” and the “MMS (mean maximal score)” value is reported as “statistically significant reduced”. Moreover, the “end score (clinical EAE score 0-5)” value in data set [1] was “reduced end score”. The “serum NF-L levels” value in data set [2] is listed as “statistically significant reduced NF-L levels”. For the same compound, in data set [3], the “mice died in group” value was “No mice died”, the disease onset entry was “postponed disease onset”, the “AUC (area under the curve) of EAE scores” value was “statistically significant reduced” and the “MMS (mean maximal score)” value is given as “statistically significant reduced”. Moreover, the “end score (clinical EAE score 0-5)” value in data set [3] was “reduced end score”.
